Test results published in ChEMBL document CHEMBL2046380, “Synthesis and structure-activity relationship of disubstituted benzamides as a novel class of antimalarial agents” (Bioorg Med Chem Lett, 2012).

Legend:
HepG2 = test: Cytotoxicity against human HepG2 cells after 72 hrs by […] CellTiterGlo reagent assay; format: cell-based; details: HepG2, 72 h
Raji = test: Cytotoxicity against human Raji cells after 72 hrs by […] CellTiterGlo reagent assay; format: cell-based
BJ = test: Cytotoxicity against human BJ cells after 72 hrs by […] CellTiterGlo reagent assay; format: cell-based
Plasmodium falciparum [1] = test: Antimalarial activity against […] incubated for 72 hrs by DNA staining based MARK1 growth inhibition assay; format: functional, organism-based
HEK293 = test: Cytotoxicity against human HEK293 cells after 72 hrs by […] CellTiterGlo reagent assay; format: cell-based; details: HEK293, 72 h
Plasmodium falciparum [2] = test: Antimalarial activity against chloroquine-sensitive Plasmodium falciparum 3D7 incubated for 72 hrs by DNA staining based MAR3D7 growth inhibition assay; format: functional, organism-based; details: 3D7, 72 h

SMILES | EC50 (HepG2) | EC50 (Raji) | EC50 (BJ) | EC50 (Plasmodium falciparum [1]) | EC50 (HEK293) | EC50 (Plasmodium falciparum [2])
CC(C)N(Cc1cccc(OCCCCCC(=O)O)c1)C(=O)c1ccc(-c2cccc(Br)c2)cc1 | > 26 µM | > 26 µM | > 26 µM | > 15 µM | > 26 µM | > 15 µM
C#CCCC(=O)NCCc1ccc(OC)c(OC)c1 | > 13 µM | > 13 µM | > 13 µM | > 7.51 µM | > 13 µM | > 7.51 µM
C=CCCC1=NCC(O[Si](C)(C)C(C)(C)C)c2cc(OC)c(OC)cc21 (stereo not drawn) | > 13 µM | > 13 µM | > 13 µM | 3.06 µM | > 13 µM | 2.95 µM
COC(=O)CCCC1=NCCc2cc(OC)c(OC)cc21 | > 13 µM | > 13 µM | > 13 µM | > 7.51 µM | > 13 µM | > 7.51 µM
COc1ccc(CCNC(=O)CCCCC(C)=O)cc1OC | > 13 µM | > 13 µM | > 13 µM | > 7.51 µM | > 13 µM | > 7.51 µM
C=CCCC1=NCCc2cc(OC)c(OC)cc21 | > 13 µM | > 13 µM | > 13 µM | > 7.51 µM | > 13 µM | > 7.51 µM
COc1cc2c(cc1OC)C(CC1(C)OCCO1)=NCC2 | > 13 µM | > 13 µM | > 13 µM | > 7.51 µM | > 13 µM | > 7.51 µM
CCOC(=O)/C=C1\NCCc2cc3c(cc21)OCO3 | > 13 µM | > 13 µM | > 13 µM | > 7.51 µM | > 13 µM | > 7.51 µM
C=CCCC1=NCC(OC(C)=O)c2cc(OC)c(OC)cc21 (stereo not drawn) | > 13 µM | > 13 µM | > 13 µM | > 7.51 µM | > 13 µM | > 7.51 µM
COc1cc2c(cc1OC)C1(CC=CCC1)N(C(C)=O)CC2 (stereo not drawn) | > 13 µM | > 13 µM | > 13 µM | > 7.51 µM | > 13 µM | > 7.51 µM
CCOC(OCC)C1=NCCc2cc(OC)c(OC)cc21 | > 13 µM | > 13 µM | > 13 µM | > 7.51 µM | > 13 µM | > 7.51 µM
CC(C)N(Cc1cccc(OCCCCCC(=O)O)c1)C(=O)c1ccccc1 | > 26 µM | > 26 µM | > 26 µM | 0.0074 µM | > 26 µM | > 15 µM
CC(C)N(Cc1cccc(OCCCCCC(=O)O)c1)C(=O)c1ccc(-c2ccc3ccccc3c2)cc1 | > 26 µM | > 26 µM | > 26 µM | > 15 µM | > 26 µM | < 0.0004 µM
CC(C)N(Cc1cccc(OCCCCCC(=O)O)c1)C(=O)c1ccc(-c2cccc(-c3ccccc3)c2)cc1 | > 26 µM | > 26 µM | > 26 µM | > 15 µM | > 26 µM | > 15 µM
CC(=O)c1cccc(-c2ccc(C(=O)N(Cc3cccc(OCCCCCC(=O)O)c3)C(C)C)cc2)c1 | > 26 µM | > 26 µM | > 26 µM | > 15 µM | > 26 µM | < 0.0004 µM
CC(C)COc1cccc(-c2ccc(C(=O)N(Cc3cccc(OCCCCCC(=O)O)c3)C(C)C)cc2)c1 | > 26 µM | > 26 µM | > 26 µM | > 15 µM | > 26 µM | > 15 µM
CC(C)Oc1cccc(-c2ccc(C(=O)N(Cc3cccc(OCCCCCC(=O)O)c3)C(C)C)cc2)c1 | > 26 µM | > 26 µM | > 26 µM | > 15 µM | > 26 µM | > 15 µM
CC(C)N(Cc1cccc(OCCCCCC(=O)O)c1)C(=O)c1ccc(-c2cccc(Oc3ccccc3)c2)cc1 | > 18.8 µM | > 18.8 µM | > 18.8 µM | > 10.4 µM | > 18.8 µM | > 10.4 µM
CC(C)N(Cc1cccc(OCCCCCC(=O)O)c1)C(=O)c1ccc(-c2cccc(OCc3ccccc3)c2)cc1 | > 26 µM | > 26 µM | > 26 µM | > 15 µM | > 26 µM | > 15 µM
COc1cccc(-c2ccc(C(=O)N(Cc3cccc(OCCCCCC(=O)O)c3)C(C)C)cc2)c1 | > 26 µM | > 21 µM | > 21 µM | > 11.6 µM | > 21 µM | > 11.6 µM
CCOc1cccc(-c2ccc(C(=O)N(Cc3cccc(OCCCCCC(=O)O)c3)C(C)C)cc2)c1 | > 20.9 µM | > 20.9 µM | > 20.9 µM | > 11.5 µM | > 20.9 µM | > 11.5 µM
CC(C)N(Cc1cccc(OCCCCCC(=O)O)c1)C(=O)c1ccc(-c2ccc3c(c2)OCCO3)cc1 | > 21.9 µM | > 21.9 µM | > 21.9 µM | > 12.1 µM | > 21.9 µM | > 12.1 µM

SMILES | EC50 (HepG2) | EC50 (Raji) | EC50 (BJ) | EC50 (Plasmodium falciparum [1]) | EC50 (HEK293) | EC50 (Plasmodium falciparum [2])
COc1cc(OC)cc(-c2ccc(C(=O)N(Cc3cccc(OCCCCCC(=O)O)c3)C(C)C)cc2)c1 | > 26 µM | > 26 µM | > 26 µM | > 15 µM | > 26 µM | > 15 µM
CC(C)N(Cc1cccc(OCCCCCC(=O)O)c1)C(=O)c1ccc(-c2cccc(O)c2)cc1 | > 26 µM | > 26 µM | > 26 µM | > 15 µM | > 26 µM | > 15 µM
CC(C)N(Cc1cccc(OCCCCCC(=O)O)c1)C(=O)c1ccc(-c2cccc(OC(F)(F)F)c2)cc1 | > 26 µM | > 26 µM | > 26 µM | > 15 µM | > 26 µM | > 15 µM
COc1cc(F)cc(-c2ccc(C(=O)N(Cc3cccc(OCCCCCC(=O)O)c3)C(C)C)cc2)c1 | > 26 µM | > 26 µM | > 26 µM | > 15 µM | > 26 µM | > 15 µM
COc1ccc(F)c(-c2ccc(C(=O)N(Cc3cccc(OCCCCCC(=O)O)c3)C(C)C)cc2)c1 | > 26 µM | > 26 µM | > 26 µM | > 15 µM | > 26 µM | > 15 µM
CC(C)N(Cc1cccc(OCCCCCC(=O)O)c1)C(=O)c1ccc(-c2cccc(F)c2)cc1 | > 26 µM | > 26 µM | > 26 µM | > 15 µM | > 26 µM | > 15 µM
CC(C)N(Cc1cccc(OCCCCCC(=O)O)c1)C(=O)c1ccc(-c2cccc(C(F)(F)F)c2)cc1 | > 26 µM | > 26 µM | > 26 µM | > 15 µM | > 26 µM | > 15 µM
CC(C)N(Cc1cccc(OCCCCCC(=O)O)c1)C(=O)c1ccc(-c2ccc(Cl)c(Cl)c2)cc1 | > 26 µM | > 26 µM | > 26 µM | 0.0175 µM | > 26 µM | > 15 µM
CC(C)N(Cc1cccc(OCCCCCC(=O)O)c1)C(=O)c1ccc(-c2cccc(Cl)c2)cc1 | > 21.9 µM | > 21.9 µM | > 21.9 µM | > 12.1 µM | > 21.9 µM | > 12.1 µM
CC(C)N(Cc1cccc(OCCCCCC(=O)O)c1)C(=O)c1ccc(-c2cccc(S(C)(=O)=O)c2)cc1 | > 26 µM | > 26 µM | > 26 µM | > 15 µM | > 26 µM | > 15 µM
CC(C)N(Cc1cccc(OCCCCCC(=O)O)c1)C(=O)c1ccc(-c2cccc([N+](=O)[O-])c2)cc1 | > 26 µM | > 26 µM | > 26 µM | > 15 µM | > 26 µM | < 0.0004 µM
CC(C)N(Cc1cccc(OCCCCCC(=O)O)c1)C(=O)c1ccc(-c2cccc(N(C)C)c2)cc1 | > 26 µM | > 26 µM | > 26 µM | > 15 µM | > 26 µM | > 15 µM
CC(=O)Nc1cccc(-c2ccc(C(=O)N(Cc3cccc(OCCCCCC(=O)O)c3)C(C)C)cc2)c1 | > 26 µM | > 26 µM | > 26 µM | > 15 µM | > 26 µM | > 15 µM
CC(C)N(Cc1cccc(OCCCCCC(=O)O)c1)C(=O)c1ccc(-c2ccncc2)cc1 | > 26 µM | > 26 µM | > 26 µM | 0.52 µM | > 26 µM | 0.567 µM
CC(C)N(Cc1cccc(OCCCCCC(=O)O)c1)C(=O)c1ccc(-c2ccoc2)cc1 | > 26 µM | > 26 µM | > 26 µM | > 15 µM | > 26 µM | > 15 µM
CC(C)N(Cc1cccc(OCCCCCC(=O)O)c1)C(=O)c1ccc(-c2ccco2)cc1 | > 26 µM | > 26 µM | > 26 µM | > 15 µM | > 26 µM | > 15 µM
CC(C)N(Cc1cccc(OCCCCCC(=O)O)c1)C(=O)c1ccc(-c2ccsc2)cc1 | > 26 µM | > 26 µM | > 26 µM | > 15 µM | > 26 µM | > 15 µM
Cc1nnc(-c2cccc(-c3ccc(C(=O)N(Cc4cccc(OCCCCCC(=O)O)c4)C(C)C)cc3)c2)o1 | > 26 µM | > 26 µM | > 26 µM | > 15 µM | > 26 µM | > 15 µM
CC(C)N(Cc1cccc(OCCCCCC(=O)O)c1)C(=O)c1ccc(-c2ccc3[nH]ccc3c2)cc1 | > 26 µM | > 26 µM | > 26 µM | > 15 µM | > 26 µM | > 15 µM
CC(C)N(Cc1cccc(OCCCCCC(=O)O)c1)C(=O)c1ccc(-c2ccc3cc[nH]c3c2)cc1 | > 26 µM | > 26 µM | > 26 µM | > 1.5 µM | > 26 µM | > 15 µM
COc1cc2c(cc1OC)C(C)=NCC2 | > 13 µM | > 13 µM | > 13 µM | > 7.51 µM | > 13 µM | > 7.51 µM
